According to paper PMC10872402, “HTS discovery of PARP1-HPF1 complex inhibitors in cancer” (SLAS discovery : advancing life sciences R & D, 2023):
Several values for one entry are separate records, joined by “and”; a condition that tells them apart may be missing. Identical values can stand only once.

Legend:
PARP1–HPF1 complex [1] = biological target: T1, PARP1–HPF1 complex (Homo sapiens, UniProt P09874+Q9NWY4); test: FP assay of PARP1–HPF1–DNA complex, PARP-directed library screen; type: biochemical
T1 construct: made in house
Method: An Opentrons OT-2 robot was used for all the pipetting steps as described. First, 20 μL of binding buffer was placed into each well of the 384-well assay plate. Next, 10 μL of the pre-formed complex of PARP1 - HPF1 - DNA or PARP2 – HPF1 – DNA (prepared in binding buffer) was added to all wells. Next, 1 μL of the inhibitors from the 12-point dilution were added to the 384-well plate and was incubated with the protein - DNA for 30 min at room temperature (RT). The plate was then transferred to BMG Labtech CLARIOstar plate reader equipped with a syringe injector. The injector was used to add 10 μL of NAD^+ into all wells except for eight control wells. […] Final concentrations were 5 nM p18mer (fluorescein-labeled), 10 nM PARP1/2, 200 nM HPF1, 200 μM NAD^+, and 0.09 μM – 200 μM inhibitor. IC50 values were calculated using a nonlinear regression analysis (sigmoidal dose-response fitting with variable slope) with the following equation: Y = Bottom + (Top – Bottom)/(1 + 10(LOGIC50 – X) · HILL SLOPE) using GraphPad Prism.
We base our assay method on our previously described fluorescence polarization (FP) assay for measuring the activity of PARP1 [15]. […] (Fig. 2A). For the inhibition assay, the complex is incubated with potential inhibitors and the PARylation reaction is initiated by the addition of NAD^+. […]

[2] = test system: PAR in the nucleus of SUM149PT cells; test: PAR immunofluorescence in SUM149PT cells with MMS; type: cell-based; conditions: 10 and 12.5 μM, 5 h, 0.01 % MMS; for amount of PAR in the nucleus: p<0.05 for 145 and 88, p<0.001 for 4
Method: 18,000 SUM149PT cells were seeded into a 96 well PhenoPlate (Revvity) and allowed to adhere overnight. Cells were then treated with the selected hits at a concentration of 10 or 12.5 μM and 0.01 % final concentration of MMS for 5 h. The medium was then aspirated, and cells were fixed with 4 % paraformaldehyde for 15 min at room temperature (RT). After washing twice with PBS, cells were incubated with 0.3 % Triton X-100 for 15 min followed by another washing step. To decrease unspecific binding of the antibodies, cells were blocked in 5 % milk for 30 min at RT. Afterwards, cells were incubated with the anti-PAR primary antibody at a 1:1000 dilution for 2 h at RT. Cells were washed again and incubated with a goat anti-mouse AlexaFluor 647 secondary antibody at a 1:500 dilution for […] at RT. Finally, cells were washed, stained with Hoechst 33342 (1:1000), and imaged using a 40x water objective on the Phenix Plus High-Content Screening (HCS) System (Revvity). Each bar graph is representative of two experiments, each with three replicates of whole-well analysis per condition. The reported data represents the average of each cell within the replicates, plotted with standard deviation error bars.

PARP1–HPF1 complex [3] = biological target: T1, PARP1–HPF1 complex; test: FP assay of PARP1–HPF1–DNA complex, dose response of hits from the 10,000 compound pilot HTS; type: biochemical; conditions: dose response of HTS hits in duplicate; 10 nM PARP1, 100 nM HPF1, 15 min
Method: A Revvity G3 Explorer collaborative robot equipped with a freezer containing the drug library, a Revvity Janus liquid handler, and a Revvity Envision was used to carry out the screen. A ChemBridge diversity library containing 10,000 compounds was used for screening. Two identical daughter plates (2 mM) were generated, one for HTS and one for cherry-picking hits identified from HTS. The drug library was maintained in a LiCONiC STX500-DF Deep Freezer at −20 °C with 80 % N2. Binding buffer (13 μL) with 0.04 % DMSO was added to columns 23 and 24 of 32 384-well plates (Corning 3575). Next, 24.5 μL binding buffer was added to all wells on the plates. Then, 0.5 μL of 2 mM stock solutions for each of the 10,000 compounds was added to separate wells, giving a final concentration of 20 μM, excluding columns 1, 2, 23, and 24. Afterwards, 12.5 μL premix (PARP1 – HPF1 – DNA, at 10 nM PARP1, 100 nM HPF1, and 5 nM FITC-labeled p18mer DNA) was added to all wells. Next, 12.5 μL of 2 mM NAD^+ was added to each well.
Dose response curves for the hits were performed using the same Revvity robot system as for the initial screen. Binding buffer (13 μL) with 0.04 % DMSO was added to columns 23 and 24 of 32 different Corning (Cat. No. 3575) plates. Next, 25 μL binding buffer was added to all wells on the plates. Cherry-picked compound plates generated from the compound source used in the initial HTS were used to add 1 compound per column from 20 to 160 nM in duplicate with 2x serial dilution using a Revvity FlexDrop iQ instrument. A 12.5 μL premix (PARP1 – HPF1 – DNA, as above) was added to all wells. Afterwards, 12.5 μL of 2 mM NAD^+ was added to each well and plates were incubated for 15 min at RT. The FP signal was read as above, and data for screened compounds was normalized between 100 % (positive control, […]) and 0 % (negative control, rows 1 and 2). Dose response curves were plotted and fit using GraphPad Prism with a non-linear regression analysis as described above.

SUM149PT tumor organoids = test: Tumor organoid cytotoxicity, CellTiter-Glo 3D; type: cell-based; conditions: Homo sapiens, 96 h, read-out: IC50 tumor organoid viability
Method: SUM149PT cells were plated at 2000 cells/well into 96-well Clear Round Bottom Ultra-Low Attachment plates (Cat. No. 7007, Corning, Corning, NY) in complete growth medium. Cell assay plates were centrifuged at 1000 RPM for 15 min to promote cellular aggregation, then 25 μL of cold Growth-Factor Reduced (GFR) Matrigel (10 %) was added per well for a final concentration of 2 %. […] Briefly, tumor organoids were transferred to 96-well CELLSTAR white solid bottom plates (Cat. No. 655083, Greiner Bio-One, Monroe, NC), 40 μL (1:1) of CellTiter-Glo 3D was added to each well and plates were then placed on an orbital shaker at 450 RPM for 45 min at room temperature. CellTiter-Glo 3D’s luminescence signal was assessed using the Envision microplate reader (Revvity, Waltham, MA) with a measurement time of 100 ms. The experiment was done with triplicate organoids per condition, and IC50.values were calculated as described above.

cancer cells = test system: cancer cells; parameters: method as in PMID 35259019; conditions: read-out: IC50 cytotoxic activity; cited from earlier work

T1 sequence (P09874 whole entry): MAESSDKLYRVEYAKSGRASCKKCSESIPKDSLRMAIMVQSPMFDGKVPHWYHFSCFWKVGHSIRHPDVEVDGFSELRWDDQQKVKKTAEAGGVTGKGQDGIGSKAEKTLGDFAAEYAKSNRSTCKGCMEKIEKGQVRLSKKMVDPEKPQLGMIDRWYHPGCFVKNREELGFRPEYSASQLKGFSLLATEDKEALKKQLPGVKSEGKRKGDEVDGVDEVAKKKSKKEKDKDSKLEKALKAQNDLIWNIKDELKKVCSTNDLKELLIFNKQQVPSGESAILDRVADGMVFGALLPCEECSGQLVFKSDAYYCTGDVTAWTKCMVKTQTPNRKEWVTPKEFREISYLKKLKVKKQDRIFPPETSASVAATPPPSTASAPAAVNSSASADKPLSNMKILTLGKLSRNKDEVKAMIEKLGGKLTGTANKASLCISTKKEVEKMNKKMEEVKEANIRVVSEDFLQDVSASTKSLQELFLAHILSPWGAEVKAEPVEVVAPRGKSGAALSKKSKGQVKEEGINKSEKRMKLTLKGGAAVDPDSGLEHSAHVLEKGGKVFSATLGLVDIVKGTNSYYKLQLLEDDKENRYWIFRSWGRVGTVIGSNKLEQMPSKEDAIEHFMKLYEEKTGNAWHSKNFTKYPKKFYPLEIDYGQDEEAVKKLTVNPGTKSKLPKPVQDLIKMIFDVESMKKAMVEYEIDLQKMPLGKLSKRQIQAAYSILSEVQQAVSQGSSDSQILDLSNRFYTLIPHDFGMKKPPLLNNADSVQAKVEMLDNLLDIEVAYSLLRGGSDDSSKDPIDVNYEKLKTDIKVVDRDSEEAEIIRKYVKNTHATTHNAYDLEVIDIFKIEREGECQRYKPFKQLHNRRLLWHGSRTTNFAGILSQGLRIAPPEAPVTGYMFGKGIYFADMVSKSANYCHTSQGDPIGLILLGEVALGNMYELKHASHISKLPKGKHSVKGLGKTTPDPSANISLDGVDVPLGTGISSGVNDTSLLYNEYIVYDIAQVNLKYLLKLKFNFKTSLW
T1 sequence (Q9NWY4 whole entry): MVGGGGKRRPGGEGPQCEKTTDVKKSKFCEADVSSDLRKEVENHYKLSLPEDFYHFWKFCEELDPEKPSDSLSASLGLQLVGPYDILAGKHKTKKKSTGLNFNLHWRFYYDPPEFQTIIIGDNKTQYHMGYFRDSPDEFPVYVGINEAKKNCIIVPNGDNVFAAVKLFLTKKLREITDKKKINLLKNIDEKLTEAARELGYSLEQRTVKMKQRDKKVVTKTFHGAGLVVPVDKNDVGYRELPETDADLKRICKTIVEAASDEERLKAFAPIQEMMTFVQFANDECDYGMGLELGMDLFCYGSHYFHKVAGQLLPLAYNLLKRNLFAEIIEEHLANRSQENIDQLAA

## NC(=O)c1ccccc1 [benzamide, reference compound]
PARP1–HPF1 complex [1]
  IC50: 14 µM

## O=C(COc1ccccc1)c1cn(CC(=O)N2CCOCC2)c2ccccc12 [compound 4]
[2]
  inhibition of PARylation: dose-dependent inhibition of PARylation
  amount of PAR in the nucleus: reduced PAR at all doses
PARP1–HPF1 complex [3]
  IC50: ~1 µM and 1.07 µM
SUM149PT tumor organoids
  IC50: 251 µM

## CCNCC#CCOc1ccc(Br)cc1 [compound 60]
PARP1–HPF1 complex [3]
  IC50: 7.77 µM

## COc1cccc(-c2nc(CC(=O)Nc3ccc(C)c(C)c3)no2)c1 [compound 88]
[2]
  inhibition of PARylation: dose-dependent inhibition of PARylation
  amount of PAR in the nucleus: decreased the amount of PAR in the nucleus at the higher dose tested
PARP1–HPF1 complex [3]
  IC50: 13.5 µM

## CCNCC#CCOc1cccc(C(F)(F)F)c1 [compound 89]
PARP1–HPF1 complex [3]
  IC50: 13.8 µM

## CNCC#CCOc1ccc(Cl)c(C)c1 [compound 110]
PARP1–HPF1 complex [3]
  IC50: 20.4 µM

## CCNC/C=C/COc1ccccc1OCC [compound 116]
PARP1–HPF1 complex [3]
  IC50: 22.6 µM

## N#Cc1c(NC(=O)C#Cc2ccccc2)sc2c1CCC2 [compound 145]
[2]
  inhibition of PARylation: dose-dependent inhibition of PARylation
  amount of PAR in the nucleus: decreased the amount of PAR in the nucleus at the higher dose tested
PARP1–HPF1 complex [3]
  IC50: 36.8 µM

## N#Cc1sc2nc(-c3ccc(F)cc3F)ccc2c1N [compound 151]
PARP1–HPF1 complex [3]
  IC50: 40.7 µM

## O=C(c1cc(Cc2n[nH]c(=O)c3ccccc23)ccc1F)N1CCN(C(=O)C2CC2)CC1 [olaparib, reference compound]
Cancer cells
  IC50: > 50 µM
SUM149PT tumor organoids
  IC50: 85 µM
